# pIC50: −log10 of the molar value.
# Biological target: human PKR1 receptors (Homo sapiens (Human), UniProt Q8TCW9)
# Test: PKR1 antagonist calcium mobilisation assay (FLIPR), block of PK1-mediated intracellular calcium release
# Type: cell-based
# Conditions: RBL2H3 cells expressing human PKR1; stimulation with PK1 at EC80; calcium fluorescence
# Protocol: Prokineticin receptor 1 (PKR1) antagonists may be functionally assessed by measurement of change in intracellular calcium levels induced by Gq mediated increase in inositol triphosphate (IP3) levels. The ability of a compound to block the intracellular release of calcium mediated by PK1 in RBL2H3 cells expressing human PKR1 receptors is determined as a measure of the compound's antagonist activity in vitro.
# Approximately 10,000 cells per assay well are seeded in normal culture medium in a 384 well plate (Corning). Twenty-four hours after seeding, the cells are loaded with a calcium sensitive fluorescent dye by replacing the culture medium with assay buffer (1× Hanks buffered saline, 25 mM HEPES, 0.1% w/v fatty acid free BSA (bovine serum albumin), pH 7.4) containing 1 mM probenecid and 1× Calcium 5 Reagent (Molecular Devices). Cells are incubated at 37° C. for 1 hour to allow for dye uptake.
# To test for antagonist activity, test compounds at a final concentration range between 0.32 nM-10 μM (diluted in assay buffer) are added to the assay wells and allowed to incubate for 10 minutes prior to stimulation with PK1. After incubation with test compounds the assay plate is placed in a FLIPR Tetra (Molecular Devices) and PK1 (diluted in assay buffer) is added at the determined EC80 concentration (final). Ligand-dependent changes in intracellular calcium levels are determined by measuring changes in fluorescence of the dye at […] following excitation at 485 nm.
# Sequence of human PKR1 receptors (Q8TCW9 whole entry): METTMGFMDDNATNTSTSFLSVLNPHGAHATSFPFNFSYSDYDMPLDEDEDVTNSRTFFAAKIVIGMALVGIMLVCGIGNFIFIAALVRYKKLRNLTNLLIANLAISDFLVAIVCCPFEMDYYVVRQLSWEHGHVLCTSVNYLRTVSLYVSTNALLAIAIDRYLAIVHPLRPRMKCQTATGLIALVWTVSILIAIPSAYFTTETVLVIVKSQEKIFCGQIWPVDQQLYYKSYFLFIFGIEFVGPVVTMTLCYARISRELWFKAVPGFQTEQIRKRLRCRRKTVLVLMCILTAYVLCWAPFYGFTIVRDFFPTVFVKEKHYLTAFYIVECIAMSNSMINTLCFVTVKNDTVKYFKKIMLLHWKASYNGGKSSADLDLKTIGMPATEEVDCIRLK
row,pIC50,SMILES
1,6.22,"Cc1n[nH]c(C)c1S(=O)(=O)N1CCC(=Cc2ccc(Cl)cc2F)CC1 [Example 11, 4-(4-Chloro-2-fluorobenzylidene)-1-((3,5-dimethyl-1H-pyrazol-4-yl)sulfonyl)piperidine]"
2,6.59,"Cc1n[nH]c(C)c1S(=O)(=O)N1CCC(=C(F)c2ccc(Cl)cc2Cl)CC1 [Example 18, 4-((2,4-Dichlorophenyl)fluoromethylene)-1-((3,5-dimethyl-1H-pyrazol-4-yl)sulfonyl)piperidine]"
3,6.72,"Cc1n[nH]c(C)c1S(=O)(=O)N1CCC(=C(F)c2ccc(Cl)c(F)c2)CC1 [Example 20, 4-((4-Chloro-3-fluorophenyl)fluoromethylene)-1-((3,5-dimethyl-1H-pyrazol-4-yl)sulfonyl)piperidine]"
4,5.43,"Cc1n[nH]c(C)c1S(=O)(=O)N1CCC(=C(C#N)c2c(F)cccc2F)CC1 [Example 4, 2-(2,6-Difluorophenyl)-2-(1-((3,5-dimethyl-1H-pyrazol-4-yl)sulfonyl)piperidin-4-ylidene)acetonitrile]"
5,6.40,"Cc1n[nH]c(C)c1S(=O)(=O)N1CCC(=C(F)c2ccc(Cl)cc2F)CC1 [Example 21, 4-((4-Chloro-2-fluorophenyl)fluoromethylene)-1-((3,5-dimethyl-1H-pyrazol-4-yl)sulfonyl)piperidine]"
6,6.33,"Cc1n[nH]c(C)c1S(=O)(=O)N1CC/C(=C(\C#N)c2ccc(Cl)cc2)C(C)C1 (stereo not shown) [Example 10, 2-(4-Chlorophenyl)-2-(1-((3,5-dimethyl-1H-pyrazol-4-yl)sulfonyl)-3-methylpiperidin-4-ylidene) acetonitrile]"
7,6.12,CC(=C1CCN(S(=O)(=O)c2c(C)n[nH]c2C)CC1)c1ccc(Cl)cc1 [Example 13]
8,7.40,"Cc1nn(C)c(C)c1S(=O)(=O)N1CCC(=C(C#N)c2ccc(Cl)cc2)CC1 [Example 15, 2-(4-Chlorophenyl)-2-(1-((1,3,5-trimethyl-1H-pyrazol-4-yl)sulfonyl)piperidin-4-ylidene)acetonitrile]"
9,6.26,"Cc1nn(C)c(C)c1S(=O)(=O)N1CCC(=Cc2ccc(Cl)cc2F)CC1 [Example 12, 4-(4-Chloro-2-fluorobenzylidene)-1-((1,3,5-trimethyl-1H-pyrazol-4-yl)sulfonyl)piperidine]"
10,7.22,Cc1n[nH]c(C)c1S(=O)(=O)N1CCC(=C(F)c2cnc3ccccc3c2)CC1 [Example 23]
11,5.86,"Cc1[nH]nc(C2CC2)c1S(=O)(=O)N1CCC(Cc2ccc(Cl)c(F)c2)CC1 [Example 1, 4-(4-Chloro-3-fluorobenzyl)-1-((3-cyclopropyl-5-methyl-1H-pyrazol-4-yl)sulfonyl)piperidine]"
12,6.12,"Cc1n[nH]c(C)c1S(=O)(=O)N1CCC(=Cc2ccc(Cl)cc2)CC1 [Example 14, 4-(4-Chlorobenzylidene)-1-((3,5-dimethyl-1H-pyrazol-4-yl)sulfonyl)piperidine]"
13,6.68,"Cc1c(S(=O)(=O)N2CCC(=C(C#N)c3ccc(Cl)cc3)CC2)c(C(F)(F)F)nn1C [Example 7, 2-(4-Chlorophenyl)-2-(1-((1,5-dimethyl-3-(trifluoromethyl)-1H-pyrazol-4-yl)sulfonyl)piperidin-4-ylidene)acetonitrile]"
14,6.82,Cc1n[nH]c(C)c1S(=O)(=O)N1CCC(=C(C#N)c2ccc(OC(F)(F)F)cc2)CC1 [Example 9]
15,7.30,"CCc1n[nH]c(CC)c1S(=O)(=O)N1CCC(=C(C#N)c2ccc(Cl)cc2)CC1 [Example 6, 2-(4-Chlorophenyl)-2-(1-((3,5-diethyl-1H-pyrazol-4-yl)sulfonyl)piperidin-4-ylidene)acetonitrile]"
16,5.27,"Cc1nn(C)c(C)c1S(=O)(=O)N1CCC(=C(C#N)c2c(F)cccc2F)CC1 [Example 8, 2-(2,6-Difluorophenyl)-2-(1-((1,3,5-trimethyl-1H-pyrazol-4-yl)sulfonyl)piperidin-4-ylidene)acetonitrile]"
17,5.51,"COC(=O)C(=C1CCN(S(=O)(=O)c2c(C)n[nH]c2C)CC1)c1ccc(Cl)cc1 [Example 2, Methyl 2-(4-Chlorophenyl)-2-(1-((3,5-dimethyl-1H-pyrazol-4-yl)sulfonyl)piperidin-4-ylidene)acetate]"
18,7.40,"Cc1n[nH]c(C)c1S(=O)(=O)N1CCC(=C(C#N)c2ccc(Cl)cc2)CC1 [Example 3, 2-(4-Chlorophenyl)-2-(1-((3,5-dimethyl-1H-pyrazol-4-yl)sulfonyl)piperidin-4-ylidene)acetonitrile]"
19,6.28,"Cc1n[nH]c(C)c1S(=O)(=O)N1CCC(=C(F)c2ccc(Cl)c(Cl)c2)CC1 [Example 19, 4-((3,4-Dichlorophenyl)fluoromethylene)-1-((3,5-dimethyl-1H-pyrazol-4-yl)sulfonyl)piperidine]"
20,6.74,"Cc1n[nH]c(C)c1S(=O)(=O)N1CCC(=C(C#N)c2ccc(Cl)cc2F)CC1 [Example 5, 2-(4-Chloro-2-fluorophenyl)-2-(1-((3,5-dimethyl-1H-pyrazol-4-yl)sulfonyl)piperidin-4-ylidene)acetonitrile]"
21,6.80,"Cc1n[nH]c(C)c1S(=O)(=O)N1CCC(=C(F)c2ccc(Cl)cc2)CC1 [Example 16, 4-((4-Chlorophenyl)fluoromethylene)-1-((3,5-dimethyl-1H-pyrazol-4-yl)sulfonyl)piperidine]"
22,5.73,"Cc1n[nH]c(C)c1S(=O)(=O)N1CCC(=C(F)c2ccc(F)c(Cl)c2)CC1 [Example 17, 4-((3-Chloro-4-fluorophenyl)fluoromethylene)-1-((3,5-dimethyl-1H-pyrazol-4-yl)sulfonyl) piperidine]"

# From patent US10208016B2, “1-sulfonyl piperidine derivatives as modulators of prokineticin receptors” (TAKEDA PHARMACEUTICAL COMPANY LIMITED, priority 2013, dated 2019)
